From publication PMC4932603, “Identification, Characterization, and X-ray Crystallographic Analysis of a Novel Type of Mannose-Specific Lectin CGL1 from the Pacific Oyster Crassostrea gigas” (Scientific Reports, 2016)

Key:
nCGL1 (native CGL1) = target: T1, nCGL1 (native CGL1) (Magallana gigas, UniProt K1QRB6); experiment: isothermal titration calorimetry; type: binding; details: read-out: K / × 10^3 M^-1 (converted)
T1 construct: gene CGI_10011001; native purification from oyster bodies (mannose-Cellulofine)
From the text: isothermal titration calorimetry on nCGL1 (native CGL1)

[1] = target: CGL1 (preparation not told: native or recombinant) (Crassostrea gigas); experiment: dynamic light scattering (DLS) + other: small angle X-ray scattering (SAXS); in an aqueous solution

## CO[C@H]1O[C@H](CO)[C@@H](O)[C@H](O)[C@@H]1O [α-MeMan]
nCGL1 (native CGL1)
  Kd: 671 µM

## CGL1 (preparation not told: native or recombinant) (natural protein)
[1]
  stoichiometry N: 2
